Laboratory results as given in ChEMBL document CHEMBL1201862, “PubChem BioAssay data set” (2004).
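Cells were grown in 96-well plates and exposed to each compound for 48 hours at five concentrations; endpoints were interpolated linearly between bracketing concentrations, or set to the highest concentration if not reached. GI50 = concentration required for 50% inhibition of growth.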 Active and inactive are the calls of the source. Cut-off read from the data, not from the text of the source: active = GI50 up to about 1.1 µM and inactive = higher.

Assays:
Test in all cases: NCI anticancer screen, dose series, 48 h
T47D = tested on: T47D
CCRF-CEM = tested on: CCRF-CEM
EKVX = tested on: EKVX
MDA-MB-231 = tested on: MDA-MB-231
KM12 = tested on: KM12
NCI-H522 = tested on: NCI-H522
CAKI-1 = tested on: CAKI-1
LOX IMVI = tested on: LOX IMVI
BT-549 = tested on: BT-549
RXF 393 = tested on: RXF 393
SNB-75 = tested on: SNB-75
HL-60 = tested on: HL-60
HCT-15 = tested on: HCT-15
UACC-257 = tested on: UACC-257
UO-31 = tested on: UO-31
SR = tested on: SR
UACC-62 = tested on: UACC-62
Hs-578T = tested on: Hs-578T
OVCAR-4 = tested on: OVCAR-4
NCI/ADR-RES = tested on: NCI/ADR-RES

Compound | GI50 (T47D) | GI50 (CCRF-CEM) | GI50 (EKVX) | GI50 (MDA-MB-231) | GI50 (KM12) | GI50 (NCI-H522) | GI50 (CAKI-1) | GI50 (LOX IMVI) | GI50 (BT-549) | GI50 (RXF 393) | GI50 (SNB-75) | GI50 (HL-60) | GI50 (HCT-15) [µM] | GI50 (UACC-257) | GI50 (UO-31) | GI50 (SR) | GI50 (UACC-62) | GI50 (Hs-578T) | GI50 (OVCAR-4) | GI50 (NCI/ADR-RES)
COc1cccc(C2c3cc4c(cc3OC(NNc3ccccc3)C2C)OCO4)c1OC (stereo unspecified) | 5.09 µM (inactive) | 3.72 µM (inactive) | 3.45 µM (inactive) | 17.5 µM (inactive) | 1.59 µM (inactive) | 2.07 µM (inactive) | 2.5 µM (inactive) | 16.5 µM (inactive) | 7.28 µM (inactive) | 3.76 µM (inactive) | 11.2 µM (inactive) | 4.05 µM (inactive) | 2.18 | 5.06 µM (inactive) | 2.82 µM (inactive) | 1.06 µM (active) | 2.78 µM (inactive) | 6.35 µM (inactive) | – | –
Cc1ccc([N+](=O)[O-])cc1NC(=O)C(=O)C1CCC2=C(Sc3ccccc3N2)C1=O (stereo unspecified) | – | 63.4 µM (inactive) | > 100 µM (inactive) | > 100 µM (inactive) | > 100 µM (inactive) | > 100 µM (inactive) | 52 µM (inactive) | > 100 µM (inactive) | > 100 µM (inactive) | > 100 µM (inactive) | > 100 µM (inactive) | > 100 µM (inactive) | > 100 | > 100 µM (inactive) | 60 µM (inactive) | – | > 100 µM (inactive) | > 100 µM (inactive) | > 100 µM (inactive) | > 100 µM (inactive)
O=c1[nH]c2c(C(F)(F)F)c(Cl)c(-c3ccccc3)nc2o1 | 20.2 µM (inactive) | 10 µM (inactive) | 14.8 µM (inactive) | 25.1 µM (inactive) | 26.7 µM (inactive) | 32.1 µM (inactive) | 34.4 µM (inactive) | 27.1 µM (inactive) | 15.7 µM (inactive) | 21.5 µM (inactive) | – | 1.41 µM (inactive) | 22.1 | 14.1 µM (inactive) | 12.5 µM (inactive) | – | 75.5 µM (inactive) | 55.6 µM (inactive) | 19.6 µM (inactive) | 16.6 µM (inactive)
O=[N+]([O-])c1cc(Cl)ccc1S(=O)(=O)c1cc(Cl)cc2c1NCCC2 | – | 26.4 µM (inactive) | 85.7 µM (inactive) | > 100 µM (inactive) | 52.7 µM (inactive) | – | 66.7 µM (inactive) | 58.5 µM (inactive) | 56.9 µM (inactive) | 41.4 µM (inactive) | 18.4 µM (inactive) | 98.4 µM (inactive) | 60.7 | 22.4 µM (inactive) | 49.5 µM (inactive) | 53.5 µM (inactive) | 29.5 µM (inactive) | 95.1 µM (inactive) | > 100 µM (inactive) | 71.4 µM (inactive)
COC[C@H](Cc1ccccc1)/N=C/c1ccccc1 | > 100 µM (inactive) | > 100 µM (inactive) | > 100 µM (inactive) | – | > 100 µM (inactive) | > 100 µM (inactive) | > 100 µM (inactive) | > 100 µM (inactive) | > 100 µM (inactive) | > 100 µM (inactive) | > 100 µM (inactive) | – | > 100 | > 100 µM (inactive) | > 100 µM (inactive) | > 100 µM (inactive) | > 100 µM (inactive) | > 100 µM (inactive) | > 100 µM (inactive) | > 100 µM (inactive)
Cc1cc(-c2nc3ccccc3s2)ccc1NS(=O)(=O)O | – | > 4.65 µM (inactive) | – | > 24.1 µM (inactive) | > 4.65 µM (inactive) | – | > 7.21 µM (inactive) | > 4.65 µM (inactive) | 0.544 µM (active) | – | > 67 µM (inactive) | – | > 4.65 | > 6.43 µM (inactive) | > 7.82 µM (inactive) | 4.34 µM (inactive) | > 12.2 µM (inactive) | > 6.28 µM (inactive) | – | > 7.1 µM (inactive)
CCOC(=O)C(=Cc1[nH]c2ccccc2c1-c1c[nH]c2ccccc12)C(=O)OCC | – | – | 16.1 µM (inactive) | 16.9 µM (inactive) | 4.69 µM (inactive) | 54.7 µM (inactive) | 17.1 µM (inactive) | 12.7 µM (inactive) | 14.7 µM (inactive) | 10.8 µM (inactive) | 12.9 µM (inactive) | – | 10.1 | 10.4 µM (inactive) | 13.5 µM (inactive) | 3.13 µM (inactive) | 4.88 µM (inactive) | 29.9 µM (inactive) | 6.76 µM (inactive) | 7.16 µM (inactive)
COP1(=O)OCc2cnccc2O1 (stereo unspecified) | > 100 µM (inactive) | – | > 100 µM (inactive) | > 100 µM (inactive) | > 100 µM (inactive) | > 100 µM (inactive) | > 100 µM (inactive) | > 100 µM (inactive) | > 100 µM (inactive) | – | > 100 µM (inactive) | – | > 100 | > 100 µM (inactive) | > 100 µM (inactive) | > 100 µM (inactive) | > 100 µM (inactive) | > 100 µM (inactive) | > 100 µM (inactive) | > 100 µM (inactive)
COc1cccc(N2CCc3c(C)c(C#N)c4nc5ccccc5n4c32)c1 | – | > 100 µM (inactive) | – | 12.2 µM (inactive) | – | 15.3 µM (inactive) | – | > 100 µM (inactive) | > 100 µM (inactive) | 45.1 µM (inactive) | 41.5 µM (inactive) | > 100 µM (inactive) | > 100 | > 100 µM (inactive) | > 100 µM (inactive) | – | > 100 µM (inactive) | 16.2 µM (inactive) | > 100 µM (inactive) | > 100 µM (inactive)
CCCCCCCCCC[C@H](O)[C@H](O)CC[C@@H](O)[C@H]1CC[C@@H]([C@H]2CC[C@H](CCCCCCC[C@@H](O)CC3=C[C@H](C)OC3=O)O2)O1 | 3.16 µM (inactive) | 2.52 µM (inactive) | 1.46 µM (inactive) | 2.31 µM (inactive) | 2.22 µM (inactive) | 15.1 µM (inactive) | 2.25 µM (inactive) | 1.33 µM (inactive) | 37.5 µM (inactive) | 4.48 µM (inactive) | 2.41 µM (inactive) | 1.9 µM (inactive) | 3.87 | 1.55 µM (inactive) | 1.22 µM (inactive) | – | 1.67 µM (inactive) | 2.79 µM (inactive) | 24.4 µM (inactive) | 1.25 µM (inactive)
COc1nc2c(c(=O)n1C)N[C@@H]1[C@@H](O)[C@H](O)CO[C@@H]1N2 | > 100 µM (inactive) | > 100 µM (inactive) | > 100 µM (inactive) | – | > 100 µM (inactive) | 38.2 µM (inactive) | > 100 µM (inactive) | > 100 µM (inactive) | > 100 µM (inactive) | > 100 µM (inactive) | > 100 µM (inactive) | > 100 µM (inactive) | > 100 | > 100 µM (inactive) | > 100 µM (inactive) | > 100 µM (inactive) | > 100 µM (inactive) | > 100 µM (inactive) | > 100 µM (inactive) | > 100 µM (inactive)
NC(=O)C/C=C/CC(N)=O | > 100 µM (inactive) | > 100 µM (inactive) | > 100 µM (inactive) | > 100 µM (inactive) | > 100 µM (inactive) | > 100 µM (inactive) | > 100 µM (inactive) | > 100 µM (inactive) | > 100 µM (inactive) | > 100 µM (inactive) | > 100 µM (inactive) | > 100 µM (inactive) | > 100 | > 100 µM (inactive) | > 100 µM (inactive) | – | > 100 µM (inactive) | > 100 µM (inactive) | > 100 µM (inactive) | > 100 µM (inactive)
CCOC(=O)c1nc2ccccc2nc1Oc1ccc(C#N)cc1 | > 100 µM (inactive) | > 100 µM (inactive) | > 100 µM (inactive) | > 10 µM (inactive) | > 100 µM (inactive) | – | – | > 100 µM (inactive) | > 100 µM (inactive) | > 100 µM (inactive) | – | > 100 µM (inactive) | > 100 | > 100 µM (inactive) | > 100 µM (inactive) | – | > 100 µM (inactive) | > 100 µM (inactive) | > 100 µM (inactive) | > 100 µM (inactive)
CCC(C)N1CN(c2ccccc2)C2(CCN(CCCSc3ccc(F)cc3)CC2)C1=O (stereo unspecified) | 2.99 µM (inactive) | 2.44 µM (inactive) | 3.33 µM (inactive) | 0.296 µM (active) | 3.92 µM (inactive) | 5.97 µM (inactive) | 3.45 µM (inactive) | 3.05 µM (inactive) | 1.66 µM (inactive) | 2.84 µM (inactive) | 11.1 µM (inactive) | 3.79 µM (inactive) | 1.75 | 2.74 µM (inactive) | 2.42 µM (inactive) | 3.32 µM (inactive) | 5.47 µM (inactive) | – | – | 3.05 µM (inactive)
CC(C)(C)n1c(=O)n2n(c1=O)C1c3cccc4cccc(c34)C2C2c3cccc4cccc(c34)C1n1c(=O)n(C(C)(C)C)c(=O)n12 | 44.9 µM (inactive) | 32.7 µM (inactive) | 63.1 µM (inactive) | 32.9 µM (inactive) | > 100 µM (inactive) | 36 µM (inactive) | 6.65 µM (inactive) | 42.8 µM (inactive) | > 100 µM (inactive) | – | 10.8 µM (inactive) | 30.5 µM (inactive) | 74.5 | > 100 µM (inactive) | > 100 µM (inactive) | – | 66.4 µM (inactive) | 64.3 µM (inactive) | – | > 100 µM (inactive)
